From the supplement of paper PMC10307832

What was measured:
Experiment in all cases: relative viability (nuclei count vs DMSO), 5 days (fraction); higher = more cells survive
NCI-H460 = tested on: NCI-H460
Summary of the method: (§1)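 Relative viability equals treated-well nuclei counts divided by vehicle-well nuclei counts. Counts came from 4× images of lung cancer cell lines grown in 1536-well plates for 5 days after pin-tool dosing on the day after seeding. Dosing used one drug alone or a fixed anchor-drug dose plus five library-drug doses (not always all listed) in √10 steps, and values are medians of duplicate plates.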

NCI-H1793 = tested on: NCI-H1793
Summary of the method: as §1

SW 1573 = tested on: SW 1573
Summary of the method: as §1

NCI-H1944 = tested on: NCI-H1944
Summary of the method: as §1

PC-3 [JPC-3] = tested on: PC-3 [JPC-3]
Summary of the method: as §1

H3255 = tested on: H3255
Summary of the method: as §1

LCLC-97TM1 = tested on: LCLC-97TM1
Summary of the method: as §1

A-427 = tested on: A-427
Summary of the method: as §1

SW 900 = tested on: SW 900
Summary of the method: as §1

COR-L23 = tested on: COR-L23
Summary of the method: as §1

LCLC-103H = tested on: LCLC-103H
Summary of the method: as §1

201T = tested on: 201T
Summary of the method: as §1

LU99A = tested on: LU99A
Summary of the method: as §1

NCI-H2347 = tested on: NCI-H2347
Summary of the method: as §1

NCI-H650 = tested on: NCI-H650
Summary of the method: as §1

PC-14 = tested on: PC-14
Summary of the method: as §1

NCI-H23 = tested on: NCI-H23
Summary of the method: as §1

RERF-LC-KJ = tested on: RERF-LC-KJ
Summary of the method: as §1

LK-2 = tested on: LK-2
Summary of the method: as §1

NCI-H727 = tested on: NCI-H727
Summary of the method: as §1

NCI-H1651 = tested on: NCI-H1651
Summary of the method: as §1

NCI-H1650 = tested on: NCI-H1650
Summary of the method: as §1

NCI-H838 = tested on: NCI-H838
Summary of the method: as §1

CC(C)Oc1cc(Nc2nc(N[C@@H](C)c3ccc(F)cn3)ncc2Cl)n[nH]1 [AZ23] + CC(=O)Nc1cccc(-n2c(=O)n(C3CC3)c(=O)c3c(Nc4ccc(I)cc4F)n(C)c(=O)c(C)c32)c1 [Trametinib] (partner 0.02 µM)
relative viability (NCI-H460; first compound 0.01 µM): 0.119
relative viability (NCI-H460; first compound 0.03162 µM): 0.128
relative viability (NCI-H460; first compound 0.3162 µM): 0.166
relative viability (NCI-H1793; first compound 0.01 µM): 0.45
relative viability (NCI-H1793; first compound 0.03162 µM): 0.407
relative viability (NCI-H1793; first compound 0.3162 µM): 0.347
relative viability (SW 1573; first compound 0.01 µM): 0.693
relative viability (SW 1573; first compound 0.03162 µM): 0.604
relative viability (SW 1573; first compound 0.3162 µM): 0.458
relative viability (NCI-H1944; first compound 0.01 µM): 0.438
relative viability (NCI-H1944; first compound 0.03162 µM): 0.398
relative viability (NCI-H1944; first compound 0.3162 µM): 0.386
relative viability (PC-3 [JPC-3]; first compound 0.01 µM): 0.612
relative viability (PC-3 [JPC-3]; first compound 0.03162 µM): 0.787
relative viability (PC-3 [JPC-3]; first compound 0.3162 µM): 0.735
relative viability (H3255; first compound 0.01 µM): 0.595
relative viability (H3255; first compound 0.03162 µM): 0.609
relative viability (H3255; first compound 0.3162 µM): 0.632
relative viability (LCLC-97TM1; first compound 0.01 µM): 0.238
relative viability (LCLC-97TM1; first compound 0.03162 µM): 0.209
relative viability (LCLC-97TM1; first compound 0.3162 µM): 0.189
relative viability (A-427; first compound 0.01 µM): 0.569
relative viability (A-427; first compound 0.03162 µM): 0.717
relative viability (A-427; first compound 0.3162 µM): 0.684
relative viability (SW 900; first compound 0.01 µM): 1.06
relative viability (SW 900; first compound 0.3162 µM): 0.873
relative viability (COR-L23; first compound 0.01 µM): 0.446
relative viability (COR-L23; first compound 0.03162 µM): 0.659
relative viability (COR-L23; first compound 0.3162 µM): 0.612
relative viability (LCLC-103H; first compound 0.01 µM): 0.741
relative viability (LCLC-103H; first compound 0.03162 µM): 0.7
relative viability (LCLC-103H; first compound 0.3162 µM): 0.655
relative viability (201T; first compound 0.01 µM): 0.716
relative viability (201T; first compound 0.03162 µM): 0.731
relative viability (201T; first compound 0.3162 µM): 0.649
relative viability (LU99A; first compound 0.01 µM): 0.519
relative viability (LU99A; first compound 0.03162 µM): 0.708
relative viability (LU99A; first compound 0.3162 µM): 0.536
relative viability (NCI-H2347; first compound 0.01 µM): 0.272
relative viability (NCI-H2347; first compound 0.03162 µM): 0.272
relative viability (NCI-H2347; first compound 0.3162 µM): 0.232
relative viability (NCI-H650; first compound 0.01 µM): 0.955
relative viability (NCI-H650; first compound 0.03162 µM): 0.99
relative viability (NCI-H650; first compound 0.3162 µM): 0.987
relative viability (PC-14; first compound 0.01 µM): 0.599
relative viability (PC-14; first compound 0.03162 µM): 0.783
relative viability (PC-14; first compound 0.3162 µM): 0.749
relative viability (NCI-H23; first compound 0.03162 µM): 0.364
relative viability (NCI-H23; first compound 0.3162 µM): 0.361
relative viability (RERF-LC-KJ; first compound 0.01 µM): 0.837
relative viability (RERF-LC-KJ; first compound 0.03162 µM): 0.883
relative viability (RERF-LC-KJ; first compound 0.3162 µM): 0.862
relative viability (LK-2; first compound 0.01 µM): 0.949
relative viability (LK-2; first compound 0.03162 µM): 0.916
relative viability (LK-2; first compound 0.3162 µM): 0.681
relative viability (NCI-H727; first compound 0.01 µM): 0.365
relative viability (NCI-H727; first compound 0.03162 µM): 0.36
relative viability (NCI-H727; first compound 0.3162 µM): 0.389
relative viability (NCI-H1651; first compound 0.01 µM): 0.829
relative viability (NCI-H1651; first compound 0.03162 µM): 0.87
relative viability (NCI-H1651; first compound 0.3162 µM): 0.854
relative viability (NCI-H1650; first compound 0.01 µM): 0.546
relative viability (NCI-H1650; first compound 0.03162 µM): 0.589
relative viability (NCI-H1650; first compound 0.3162 µM): 0.659
relative viability (NCI-H838; first compound 0.01 µM): 0.615
relative viability (NCI-H838; first compound 0.03162 µM): 0.561
relative viability (NCI-H838; first compound 0.3162 µM): 0.456
